Results from PubChem BioAssay (NCI).
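GI50 is the concentration that inhibits growth by half. TGI: total growth inhibition.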

What was measured:
Assay in all cases: NCI anticancer screen, dose series, 384-well format
[1] = test system: NCI-H23 lung
[2] = test system: RXF 393 renal
[3] = test system: NCI-H460 NSCLC
[4] = test system: MDA-MB-231 breast
[5] = test system: HOP-62 NSCLC
[6] = test system: SF-295 CNS
[7] = test system: SW-620 colon
[8] = test system: CAKI-1 renal
[9] = test system: SR leukemia
[10] = test system: HCT-116 colon
[11] = test system: HCT-15 colon
[12] = test system: OVCAR-3 ovarian
[13] = test system: RPMI-8226 leukemia
[14] = test system: NCI-H226 lung
[15] = test system: PC-3 prostate
[16] = test system: MDA-MB-435 melanoma
[17] = test system: SK-MEL-28 melanoma
[18] = test system: UO-31 renal
[19] = test system: SF-539 CNS
[20] = test system: MDA-MB-468 breast
[21] = test system: OVCAR-4 ovarian
[22] = test system: SK-OV-3 ovarian
[23] = test system: 786-0 renal
[24] = test system: T-47D breast
[25] = test system: MALME-3M melanoma
[26] = test system: DU-145 prostate
[27] = test system: KM12 colon
[28] = test system: UACC-257 melanoma
[29] = test system: TK-10 renal
[30] = test system: HT29 colon
[31] = test system: NCI-H322M lung
[32] = test system: NCI-H522 lung
[33] = test system: EKVX NSCLC
[34] = test system: SK-MEL-2 melanoma
[35] = test system: UACC-62 melanoma
[36] = test system: A549 NSCLC
[37] = test system: A498 renal
[38] = test system: LOX IMVI melanoma
[39] = test system: U251 glioblastoma
[40] = test system: SNB-19 CNS
[41] = test system: NCI/ADR-RES ovarian
[42] = test system: BT-549 breast
[43] = test system: SN12C renal
[44] = test system: MOLT-4 leukemia
[45] = test system: OVCAR-8 ovarian
[46] = test system: K-562 leukemia
[47] = test system: OVCAR-5 ovarian
[48] = test system: ACHN renal
[49] = test system: SNB-75 CNS
[50] = test system: HS 578T breast
[51] = test system: HL-60(TB) leukemia
[52] = test system: M14 melanoma
[53] = test system: SK-MEL-5 melanoma
[54] = test system: HOP-92 NSCLC
[55] = test system: MCF7 breast
[56] = test system: HCC-2998 colon
[57] = test system: IGROV1 ovarian
[58] = test system: SF-268 CNS

Cc1cnc(-c2ccc(-c3ccc(NC(=O)Nc4cccc(C(F)(F)F)c4)cc3F)c3c2C(=O)NC3)[nH]1 was tested, and the GI50 [1] was 783 nM, the TGI [1] was 2390 nM and the GI50 [2] was 923 nM. For the same compound, the TGI [2] was 3400 nM, the GI50 [3] was 38.1 nM and the TGI [3] was 1360 nM. The GI50 [4] was 1680 nM, the TGI [4] was 8560 nM and the GI50 [5] was 103 nM. It also gave a TGI [5] of 2030 nM, a GI50 [6] of 93.3 nM and a TGI [6] of 4690 nM. The GI50 [7] was 83.5 nM, the TGI [7] was 3640 nM and the GI50 [8] was 145 nM. It also gave a TGI [8] of 8830 nM, a GI50 [9] of less than 10 nM and a TGI [9] of 14.4 nM. For the same compound, the GI50 [10] was 248 nM, the TGI [10] was 2220 nM and the GI50 [11] was 926 nM. For the same compound, the TGI [11] was 4450 nM, the GI50 [12] was 75.5 nM and the TGI [12] was 2110 nM. The GI50 [13] was 31 nM, the TGI [13] was 1490 nM and the GI50 [14] was 284 nM. For the same compound, the TGI [14] was 3150 nM, the GI50 [15] was 1960 nM and the TGI [15] was 5350 nM. It also gave a GI50 [16] of 1270 nM, a TGI [16] of 10100 nM and a GI50 [17] of 1300 nM. The TGI [17] was 12200 nM, the GI50 [18] was 81.7 nM and the TGI [18] was 1460 nM. It also gave a GI50 [19] of 60.9 nM, a TGI [19] of 1740 nM and a GI50 [20] of 28.2 nM. It also gave a TGI [20] of 75.4 nM, a GI50 [21] of 96.5 nM and a TGI [21] of 2660 nM. For the same compound, the GI50 [22] was 926 nM, the TGI [22] was 4140 nM and the GI50 [23] was 1470 nM. For the same compound, the TGI [23] was 3730 nM, the GI50 [24] was 2060 nM and the TGI [24] was 6710 nM. For the same compound, the GI50 [25] was 590 nM, the TGI [25] was 3820 nM and the GI50 [26] was 1270 nM. The TGI [26] was 7710 nM, the GI50 [27] was less than 10 nM and the TGI [27] was 1320 nM. It also gave a GI50 [28] of 1730 nM, a TGI [28] of 9250 nM and a GI50 [29] of 1050 nM. The TGI [29] was 4470 nM, the GI50 [30] was 2180 nM and the TGI [30] was 13600 nM. For the same compound, the GI50 [31] was 7120 nM, the TGI [31] was 26500 nM and the GI50 [32] was 34.5 nM. For the same compound, the TGI [32] was 1600 nM, the GI50 [33] was 91.7 nM and the TGI [33] was 4160 nM. It also gave a GI50 [34] of 751 nM, a TGI [34] of 3240 nM and a GI50 [35] of 276 nM. For the same compound, the TGI [35] was 4730 nM, the GI50 [36] was 1050 nM and the TGI [36] was 6400 nM. For the same compound, the GI50 [37] was 134 nM, the TGI [37] was 2210 nM and the GI50 [38] was 444 nM. The TGI [38] was 2370 nM, the GI50 [39] was 1340 nM and the TGI [39] was 3170 nM. It also gave a GI50 [40] of 1700 nM, a TGI [40] of 4540 nM and a GI50 [41] of 24000 nM. It also gave a TGI [41] greater than 100000 nM, a GI50 [42] of 130 nM and a TGI [42] of 2820 nM. It also gave a GI50 [43] of 75.5 nM, a TGI [43] of 2270 nM and a GI50 [44] of less than 10 nM. For the same compound, the TGI [44] was 11.7 nM, the GI50 [45] was 1210 nM and the TGI [45] was 10500 nM. For the same compound, the GI50 [46] was 51.6 nM, the TGI [46] was 1300 nM and the GI50 [47] was 5690 nM. For the same compound, the TGI [47] was 22700 nM, the GI50 [48] was 681 nM and the TGI [48] was 10300 nM. For the same compound, the GI50 [49] was 1130 nM, the TGI [49] was 2660 nM and the GI50 [50] was 50.3 nM. The TGI [50] was 1530 nM, the GI50 [51] was 16.2 nM and the TGI [51] was 1050 nM. For the same compound, the GI50 [52] was 126 nM, the TGI [52] was 3180 nM and the GI50 [53] was 1010 nM. The TGI [53] was 4350 nM, the GI50 [54] was 685 nM and the TGI [54] was 3310 nM. For the same compound, the GI50 [55] was 1080 nM, the TGI [55] was 4280 nM and the GI50 [56] was 2860 nM. The TGI [56] was 6700 nM, the GI50 [57] was 1320 nM and the TGI [57] was 12400 nM. For the same compound, the GI50 [58] was 261 nM and the TGI [58] was 3000 nM.
